Experimental data reported in ChEMBL document CHEMBL1201862, “PubChem BioAssay data set” (2004).
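These data come from cells grown in 96-well plates and exposed to compound for 48 hours at five concentrations. GI50: concentration for 50% inhibition of growth.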 Activity calls are given as the source filed them. No stated cut-off is given here; in the data, active = GI50 up to about 1.1 µM and inactive = higher.

Legend:
Test in all cases: NCI-60 cell line screen, 48 h
SK-MEL-2 = system: SK-MEL-2
U-251 = system: U-251
HCT-116 = system: HCT-116
TK-10 = system: TK-10
SF-268 = system: SF-268
KM12 = system: KM12
HCC 2998 = system: HCC 2998
MCF7 = system: MCF7
SW-620 = system: SW-620
ACHN = system: ACHN
PC-3 = system: PC-3
HL-60 = system: HL-60
IGROV-1 = system: IGROV-1
OVCAR-5 = system: OVCAR-5
HOP-92 = system: HOP-92
CCRF-CEM = system: CCRF-CEM
SF-295 = system: SF-295
COLO 205 = system: COLO 205
A549 = system: A549
786-0 = system: 786-0
SN12C = system: SN12C
UO-31 = system: UO-31
SNB-19 = system: SNB-19
HCT-15 = system: HCT-15
SR = system: SR
SK-OV-3 = system: SK-OV-3
Malme-3M = system: Malme-3M
SK-MEL-28 = system: SK-MEL-28
NCI-H460 = system: NCI-H460
NCI/ADR-RES = system: NCI/ADR-RES
K562 = system: K562
M14 = system: M14
MOLT-4 = system: MOLT-4
HOP-62 = system: HOP-62
LOX IMVI = system: LOX IMVI
OVCAR-3 = system: OVCAR-3
CAKI-1 = system: CAKI-1
SNB-75 = system: SNB-75
A498 = system: A498
OVCAR-8 = system: OVCAR-8
SK-MEL-5 = system: SK-MEL-5
T47D = system: T47D
RXF 393 = system: RXF 393
NCI-H226 = system: NCI-H226
MDA-N = system: MDA-N
NCI-H23 = system: NCI-H23
RPMI-8226 = system: RPMI-8226
SF-539 = system: SF-539
DU-145 = system: DU-145
HT-29 = system: HT-29
UACC-257 = system: UACC-257
MDA-MB-435 = system: MDA-MB-435
OVCAR-4 = system: OVCAR-4
NCI-H522 = system: NCI-H522
Hs-578T = system: Hs-578T
MDA-MB-231 = system: MDA-MB-231
UACC-62 = system: UACC-62
EKVX = system: EKVX

SMILES: CC(=O)c1c[nH]cc1CO
- GI50 (SK-MEL-2): > 10 µM (inactive)
- GI50 (U-251): > 10 µM (inactive)
- GI50 (HCT-116): > 10 µM (inactive)
- GI50 (TK-10): > 10 µM (inactive)
- GI50 (SF-268): > 10 µM (inactive)
- GI50 (KM12): > 10 µM (inactive)
- GI50 (HCC 2998): > 10 µM (inactive)
- GI50 (MCF7): > 10 µM (inactive)
- GI50 (SW-620): > 10 µM (inactive)
- GI50 (ACHN): > 10 µM (inactive)
- GI50 (PC-3): > 10 µM (inactive)
- GI50 (HL-60): > 10 µM (inactive)
- GI50 (IGROV-1): > 10 µM (inactive)
- GI50 (OVCAR-5): > 10 µM (inactive)
- GI50 (HOP-92): > 10 µM (inactive)
- GI50 (CCRF-CEM): > 10 µM (inactive)
- GI50 (SF-295): > 10 µM (inactive)
- GI50 (COLO 205): > 10 µM (inactive)
- GI50 (A549): > 10 µM (inactive)
- GI50 (786-0): > 10 µM (inactive)
- GI50 (SN12C): > 10 µM (inactive)
- GI50 (UO-31): > 10 µM (inactive)
- GI50 (SNB-19): > 10 µM (inactive)
- GI50 (HCT-15): > 10 µM
- GI50 (SR): > 10 µM (inactive)
- GI50 (SK-OV-3): > 10 µM (inactive)
- GI50 (Malme-3M): > 10 µM (inactive)
- GI50 (SK-MEL-28): > 10 µM (inactive)
- GI50 (NCI-H460): > 10 µM (inactive)
- GI50 (NCI/ADR-RES): > 10 µM (inactive)
- GI50 (K562): > 10 µM (inactive)
- GI50 (M14): > 10 µM (inactive)
- GI50 (MOLT-4): > 10 µM (inactive)
- GI50 (HOP-62): > 10 µM (inactive)
- GI50 (LOX IMVI): > 10 µM (inactive)
- GI50 (OVCAR-3): > 10 µM (inactive)
- GI50 (CAKI-1): > 10 µM (inactive)
- GI50 (SNB-75): > 10 µM (inactive)
- GI50 (A498): > 10 µM (inactive)
- GI50 (OVCAR-8): > 10 µM (inactive)
- GI50 (SK-MEL-5): > 10 µM (inactive)
- GI50 (T47D): > 10 µM (inactive)
- GI50 (RXF 393): > 10 µM (inactive)
- GI50 (NCI-H226): > 10 µM (inactive)
- GI50 (MDA-N): > 10 µM (inactive)
- GI50 (NCI-H23): > 10 µM (inactive)
- GI50 (RPMI-8226): > 10 µM (inactive)
- GI50 (SF-539): > 10 µM (inactive)

SMILES: O=C1NCC2(CCN(CC3COc4ccccc4O3)CC2)N1c1ccccc1 (centres undefined)
- GI50 (SK-MEL-2): > 100 µM (inactive)
- GI50 (U-251): > 100 µM (inactive)
- GI50 (HCT-116): > 100 µM (inactive)
- GI50 (TK-10): > 100 µM (inactive)
- GI50 (DU-145): > 100 µM (inactive)
- GI50 (HT-29): > 100 µM (inactive)
- GI50 (UACC-257): > 100 µM (inactive)
- GI50 (SF-268): > 100 µM (inactive)
- GI50 (KM12): > 100 µM (inactive)
- GI50 (HCC 2998): > 100 µM (inactive)
- GI50 (MCF7): > 100 µM (inactive)
- GI50 (SW-620): > 100 µM (inactive)
- GI50 (ACHN): > 100 µM (inactive)
- GI50 (MDA-MB-435): > 100 µM (inactive)
- GI50 (PC-3): > 100 µM (inactive)
- GI50 (HL-60): 60.3 µM (inactive)
- GI50 (IGROV-1): > 100 µM (inactive)
- GI50 (OVCAR-5): > 100 µM (inactive)
- GI50 (OVCAR-4): > 100 µM (inactive)
- GI50 (CCRF-CEM): > 100 µM (inactive)
- GI50 (SF-295): > 100 µM (inactive)
- GI50 (COLO 205): > 100 µM (inactive)
- GI50 (A549): > 100 µM (inactive)
- GI50 (786-0): > 100 µM (inactive)
- GI50 (NCI-H522): > 100 µM (inactive)
- GI50 (SN12C): > 100 µM (inactive)
- GI50 (Hs-578T): > 100 µM (inactive)
- GI50 (UO-31): > 100 µM (inactive)
- GI50 (SNB-19): > 100 µM (inactive)
- GI50 (HCT-15): > 100 µM
- GI50 (SR): > 100 µM (inactive)
- GI50 (SK-OV-3): > 100 µM (inactive)
- GI50 (Malme-3M): > 100 µM (inactive)
- GI50 (SK-MEL-28): 89.5 µM (inactive)
- GI50 (NCI-H460): > 100 µM (inactive)
- GI50 (NCI/ADR-RES): > 100 µM (inactive)
- GI50 (K562): 80.4 µM (inactive)
- GI50 (M14): > 100 µM (inactive)
- GI50 (MOLT-4): 71.1 µM (inactive)
- GI50 (HOP-62): > 100 µM (inactive)
- GI50 (MDA-MB-231): > 100 µM (inactive)
- GI50 (LOX IMVI): > 100 µM (inactive)
- GI50 (OVCAR-3): > 100 µM (inactive)
- GI50 (CAKI-1): > 100 µM (inactive)
- GI50 (SNB-75): > 100 µM (inactive)
- GI50 (A498): > 100 µM (inactive)
- GI50 (OVCAR-8): > 100 µM (inactive)
- GI50 (SK-MEL-5): > 100 µM (inactive)
- GI50 (T47D): > 100 µM (inactive)
- GI50 (UACC-62): > 100 µM (inactive)
- GI50 (RXF 393): > 100 µM (inactive)
- GI50 (NCI-H226): > 100 µM (inactive)
- GI50 (EKVX): > 100 µM (inactive)
- GI50 (NCI-H23): > 100 µM (inactive)
- GI50 (RPMI-8226): > 100 µM (inactive)
- GI50 (SF-539): > 100 µM (inactive)

SMILES: NC(=O)CC(Nc1ncc2c(n1)-c1ccccc1OC2)C(=O)O (centres undefined)
- GI50 (SK-MEL-2): > 100 µM (inactive)
- GI50 (U-251): > 100 µM (inactive)
- GI50 (HCT-116): > 100 µM (inactive)
- GI50 (TK-10): > 100 µM (inactive)
- GI50 (DU-145): > 100 µM (inactive)
- GI50 (HT-29): 64.3 µM (inactive)
- GI50 (UACC-257): 61.7 µM (inactive)
- GI50 (SF-268): > 100 µM (inactive)
- GI50 (KM12): > 100 µM (inactive)
- GI50 (MCF7): 77.6 µM (inactive)
- GI50 (SW-620): > 100 µM (inactive)
- GI50 (ACHN): > 100 µM (inactive)
- GI50 (MDA-MB-435): > 100 µM (inactive)
- GI50 (PC-3): > 100 µM (inactive)
- GI50 (HL-60): 14.9 µM (inactive)
- GI50 (IGROV-1): 24.2 µM (inactive)
- GI50 (OVCAR-5): > 100 µM (inactive)
- GI50 (HOP-92): > 100 µM (inactive)
- GI50 (OVCAR-4): > 100 µM (inactive)
- GI50 (CCRF-CEM): > 100 µM (inactive)
- GI50 (SF-295): > 100 µM (inactive)
- GI50 (COLO 205): > 100 µM (inactive)
- GI50 (A549): > 100 µM (inactive)
- GI50 (786-0): > 100 µM (inactive)
- GI50 (NCI-H522): > 100 µM (inactive)
- GI50 (SN12C): > 100 µM (inactive)
- GI50 (Hs-578T): > 100 µM (inactive)
- GI50 (UO-31): > 100 µM (inactive)
- GI50 (SNB-19): > 100 µM (inactive)
- GI50 (HCT-15): 85.7 µM
- GI50 (SR): > 100 µM (inactive)
- GI50 (SK-OV-3): > 100 µM (inactive)
- GI50 (Malme-3M): 92 µM (inactive)
- GI50 (SK-MEL-28): > 100 µM (inactive)
- GI50 (NCI-H460): > 100 µM (inactive)
- GI50 (NCI/ADR-RES): > 100 µM (inactive)
- GI50 (K562): > 100 µM (inactive)
- GI50 (M14): > 100 µM (inactive)
- GI50 (MOLT-4): > 100 µM (inactive)
- GI50 (HOP-62): > 100 µM (inactive)
- GI50 (MDA-MB-231): > 100 µM (inactive)
- GI50 (LOX IMVI): > 100 µM (inactive)
- GI50 (OVCAR-3): > 100 µM (inactive)
- GI50 (CAKI-1): 43.1 µM (inactive)
- GI50 (SNB-75): 67.9 µM (inactive)
- GI50 (OVCAR-8): > 100 µM (inactive)
- GI50 (SK-MEL-5): > 100 µM (inactive)
- GI50 (UACC-62): > 100 µM (inactive)
- GI50 (RXF 393): > 100 µM (inactive)
- GI50 (NCI-H226): 71.1 µM (inactive)
- GI50 (EKVX): 59.6 µM (inactive)
- GI50 (MDA-N): > 100 µM (inactive)
- GI50 (NCI-H23): > 100 µM (inactive)
- GI50 (RPMI-8226): 26 µM (inactive)
- GI50 (SF-539): > 100 µM (inactive)
